Test results: ChEMBL document CHEMBL3108668, “Antitumor activity of jujuboside B and the underlying mechanism via induction of apoptosis and autophagy” (J Nat Prod, 2014)
Active and inactive are the calls of the source. No cut-off for these calls is given here.

Key:
HCT-116 [1] = experiment: Induction of autophagy in human HCT116 cells assessed as massive vacuole formation at 50 uM after 24 hrs by acridine orange staining-based fluorescence microscopy; assay type: functional, cell-based
HCT-116 [2] = experiment: Induction of apoptosis in human HCT116 cells assessed as early apoptotic cells at 150 uM after 24 hrs by annexin V-FITC/propidium iodide staining-based flow cytometry (reference value: 3.61%); assay type: functional

With `CC(C)=C[C@H]1C[C@](C)(O)[C@@H]2[C@H]3CC[C@@H]4[C@@]5(C)CC[C@H](O[C@@H]6OC[C@H](O)[C@H](O[C@@H]7O[C@H](CO)[C@@H](O)[C@H](O)[C@H]7O[C@@H]7OC[C@@H](O)[C@H](O)[C@H]7O)[C@H]6O[C@@H]6O[C@@H](C)[C@H](O)[C@@H](O)[C@H]6O)C(C)(C)[C@@H]5CC[C@@]4(C)[C@@]34CO[C@@]2(C4)O1` the Activity (HCT-116 [1]) was “Active” and the Activity (HCT-116 [2]) was 43.39%.
